# Patent publication US6201116A, “Halide indicators” (The Regents of the University of California, priority 1999, dated 2001)
# Legend:
# [1] = Fluorescence spectra / optical properties; assay type: physicochemical; design: key to Brightness: ++++: very bright; +++: bright; ++: moderate brightness; +: weak; settings: for Brightness / λem (emission wavelength) / λex (excitation wavelength): Table 4
# Description: (§1) Computations. In vitro fluorescence quenching studies were carried out at peak excitation and emission wavelengths. Microliter aliquots of the sodium salt of the quenching anion (1 M) were added to indicator solution in 5 mM sodium phosphate (pH 7.2, unless indicated otherwise). Fluorescence intensities in the absence (Fo) and presence (F) of quencher anion ([Q]) were measured to give the Stem-Volmer constant (Kq) as defined by:
# Fluorescence spectra reveal that LZQ and LMQ have broad excitation and emission peaks with maxima at 424 and 528 nm, respectively. The molar extinction coefficient of LZQ was 11,100 M^-1 cm^-1 at 424 nm and the quantum yield in the absence of I^- was 0.53. Stem-Volmer plots for quenching of LZQ and LMQ by I^- and Cl^-, with data for SPQ shown for comparison, were generated. In water (or saline), LZQ fluorescence was quenched by I^- with a Stem-Volmer constant of 60 M^-1. LZQ fluorescence was not quenched (Stem-Volmer constant <1 M^-1) by Cl^-, NO3^-, phosphate, acetate, Na^+ and K^+. LZQ fluorescence and I^- sensitivity were not affected by pH changes in the range 4.5-8.
# [2] = In vitro fluorescence quenching by I^- (Stern-Volmer); assay type: physicochemical; settings: Table 4
# Description: as §1, with “by: Fo /F=1+Kq [Q].” for “by:”
# CFTR = settings: cited from earlier work; for correction of CF phenotype (chemical chaperones): Swiss 3T3, Brown et al., 1996
# cells [3] = assay: Cell loading and intracellular distribution (fluorescence/confocal microscopy); assay type: cell-based; settings: for Cellular properties: staining/distribution: Table 4
# Description: (§2) Fluorescence microscopy. Fluorescence microscopy measurements were performed as described previously (Chao et al., 1989). Briefly, coverglasses were mounted in a 0.5 ml perfusion chamber in which the cell-free glass surface made contact with an oil immersion objective (Nikon ×40 magnification, numerical aperture[NA] 1.3). Cell fluorescence was excited at 365±10 nm (SPQ) or 420 nm±10 nm (LZQ and LMQ). Emitted fluorescence was detected by a photomultiplier in a Nikon inverted epifluorescence microscope using a 410 nm dichroic mirror and 420 nm barrier filter (SPQ) or a 455 nm dichroic mirror and 500 nm barrier filter (LZQ). For cells colabeled with SPQ and LZQ, SPQ fluorescence was excited at 365±10 nm and detected using a 410 nm dichroic mirror and 455±30 nm interference filter. Confocal fluorescence micrographs were obtained using a Nipkow wheel confocal microscope and cooled CCD camera detector using a ×60 oil immersion objective (Nikon, NA 1.4). LZQ-labeled cells were viewed using a fluorescein filter set (excitation 480±15 nm, emission 520±20 nm).
# Transport measurements. Cells were labeled with LZQ or SPQ by hypotonic shock (loading buffer/water 1:1 containing 2 mM LZQ or 7.5 mM SPQ) for 5 min at room temperature or by overnight incubation with indicators in the cell culture medium. Extracellular indicator was removed by washing just prior to measurements. For fluorescence microscopy, glass coverslips were then mounted in a perfusion chamber (flow ~2 ml/min) in which solutions were exchanged using a 4-way valve. For microplate reader measurements, cells in 96-well plates were bathed in […] of the `1st buffer` (see Table 3) and […] of the Cl^- -containing, I^- -free solution was injected into the well to drive Cl^- /I^- exchange (protocol 1). For stimulation of CFTR using protocol 2, […] of a 1:8 mixture of the 1st buffer and the 2nd buffer containing […] forskolin, 2 mM CPT-cAMP and […] IBMX was added.
# (§3) LZQ and LMQ were loaded into cells efficiently by hypotonic shock or passive incubation. […] As was found for SPQ, LZQ and LMQ were non-toxic to cells in assays of cell growth (2 mM in culture medium for 72 h).
# cells [4] = assay: Indicator leakage / cytoplasmic retention; assay type: cell-based; settings: Table 4
# Description: as §2
# (§4) A time course of LZQ fluorescence during perfusion with physiological saline at 23° C. was generated. A small group of 20-30 cells was illuminated continuously and fluorescence was detected by a photomultiplier using an ×40, 1.3 NA objective. Cellular fluorescence decreased slowly at a rate of 2.5% per hour. To determine the relative contributions of indicator leakage vs. photobleaching to the slow decline in fluorescence, the perfused cells were illuminated intermittently. […] Background fluorescence (in non-labeled cells) was generally <5% of the fluorescence of LZQ-labeled cells.
# cells [5] = assay: Photobleaching in cells; assay type: cell-based; settings: Table 4
# Description: as §2, §4
# cells [6] = assay: Toxicity in assays of cell growth; assay type: cell-based; settings: 2 mM in culture medium for 72 h
# Description: as §3
# cells [7] = assay: Response of intracellular fluorescence to osmotically-induced changes in cell volume; assay type: cell-based
# Description: as §2
# The similar LZQ lifetime in cells and water predicts that LZQ fluorescence should be relatively insensitive to cell volume in the absence of I^-. […] When cells were exposed to hypoosmotic medium (225 mOsm), SPQ fluorescence increased by 15±2%, whereas LZQ fluorescence increased by only 4±1%.
# [8] = system: CFTR-expressing fibroblasts and T84 cells; assay: Cl^-/I^- exchange by LZQ fluorescence, CFTR-expressing cells; assay type: cell-based; settings: solution Cl^- replaced by I^-
# Description: as §2, with “LZQ-labeled cells were viewed using a fluorescein filter set (excitation 480±15 nm, emission 520±20 nm).” left out
# (§5) Transport measurements. […] For fluorescence microscopy, glass coverslips were then mounted in a perfusion chamber (flow ~2 ml/min) in which solutions were exchanged using a 4-way valve. For microplate reader measurements, cells in 96-well plates were bathed in […] of the `1st buffer` (see Table 3) and […] of the Cl^- -containing, I^- -free solution was injected into the well to drive Cl^- /I^- exchange (protocol 1). […]
# control fibroblasts = assay: Cl^-/I^- exchange by LZQ fluorescence, control cells; assay type: cell-based; settings: solution Cl^- replaced by I^-
# Description: as §2, with “LZQ-labeled cells were viewed using a fluorescein filter set (excitation 480±15 nm, emission 520±20 nm).” left out
# as §5
Molecule,Brightness [1],λem (emission wavelength) [1],λex (excitation wavelength) [1],"Ksv (I^-), Stern Volmer quenching constant [2]",further results
"C[n+]1c(-c2ccccc2)ccc2cc3ccc(-c4ccccc4)nc3cc21 [Compound VII, 1-methyl-2,7-diphenylpyrido-[3,2,g]quinolinium]",+++,515 nm,405 nm,46 M⁻¹,–
[2H]O[2H] [D2 O],–,–,–,–,correction of CF phenotype (chemical chaperones) (CFTR): corrected the CF phenotype
NCCCNCCCCNC(=O)C(O)NC(=O)CCCCCCN=C(N)N (centres unmarked) [Deoxyspergualin],–,–,–,–,"restoration of Cl transport (CFTR; C127-CFTR, JME/CF15, IBE-1, Jiang et al., 1998): partially restored"
"CC(C)Cn1c(=O)n(C)c(=O)c2[nH]cnc21 [IBMX, 3-isobutyl-1-methylxanthine]",–,–,–,–,"effect of increased [IBMX] on ΔF508 response (CFTR; L cells, Yang et al., 1993): improved"
"N=c1ccc2c(-c3ccccc3C(=O)O)c3ccc(N)cc3oc-2c1 [III, rhodamine-110, reference compound]",++++,520 nm,496 nm,40 M⁻¹,–
Nc1ncnc2c1nc([O-])c1cccc[n+]12 [II],+++,530 nm,424 nm,70 M⁻¹,emission maximum [1]: 528 nm; excitation maximum [1]: 424 nm; Cellular properties: staining/distribution (cells [3]): staining uniform; loading into cells (cells [3]; hypotonic shock or passive incubation): efficiently; Cellular properties: leakage rate (cells [4]): moderate; Cellular properties: photobleaching (cells [5]): slow photobleaching; toxicity to cells (cell growth) (cells [6]): non-toxic
"Cc1cc2cc3cc(C)c(N)cc3[n+](C)c2cc1N [IX, 10-methyl acridinium yellow]",++++,520 nm,440 nm,90 M⁻¹,Cellular properties: photobleaching (cells [5]): very rapid
"COc1ccc2c(ccc[n+]2CCCS(=O)(=O)[O-])c1 [SPQ, 6-methoxy-N-[3-sulfopropyl]quinolinium, reference compound]",–,–,–,–,"toxicity to cells (cell growth) (cells [6]): non-toxic; fluorescence increase upon exposure to hypoosmotic medium (cells [7]; 225 mOsm): 15±2%; fluorescence decrease upon exposure to hyperosmotic medium (cells [7]; 600 mOsm, absence of Cl^-, S.E., n=3): 30±2%"
C[N+](C)(C)[O-] [TMAO],–,–,–,–,correction of CF phenotype (chemical chaperones) (CFTR): corrected the CF phenotype
"O=c1ccc2nc3ccc(O)cc3oc-2c1 [VIII, resorufin, reference compound]",+++,585 nm,571 nm,76 M⁻¹,–
"CN(C)c1ccc2cc3ccc(N(C)C)cc3[n+](C)c2c1 [X, 10-methyl acridinium orange]",++++,550 nm,440 nm,30 M⁻¹,Cellular properties: photobleaching (cells [5]): very rapid
"Nc1c2ccccc2[n+](CCCS(=O)(=O)[O-])c2ccccc12 [XII, 9-amino-10-(3-sulfopropys) acridinium]",+++,457 nm,422 nm,253 M⁻¹,Cellular properties: staining/distribution (cells [3]): nuclear staining; Cellular properties: photobleaching (cells [5]): rapid
"Nc1ccc2nc3ccc(N)cc3[n+](-c3ccccc3)c2c1 [XIII, phenosafranine, reference compound]",++,586 nm,520 nm,33 M⁻¹,–
C=C[C@@]1(C)CC(=O)[C@]2(O)[C@@]3(C)[C@@H](O)CCC(C)(C)[C@@H]3[C@H](O)[C@H](OC(C)=O)[C@@]2(C)O1 [forskolin],–,–,–,–,"forskolin-stimulated change in LZQ fluorescence [8]: rapid decrease in LZQ fluorescence; forskolin-stimulated decrease in LZQ fluorescence, control (control fibroblasts): not in control fibroblasts"
OCC(O)CO [glycerol],–,–,–,–,correction of CF phenotype (chemical chaperones) (CFTR): corrected the CF phenotype
CCCC(=O)[O-].[Na+] [sodium butyrate],–,–,–,–,"Cl transport, overexpression of ΔF508 (CFTR; CFPAC-1, JME/CF15, 1° culture, Cheng et al., 1995): resulted in detectable Cl"
CFTR protein: purified CFTR protein,–,–,–,–,"Cl transport after transfer of purified protein (CFTR; CHO-CFTR, FRT-CFTR, LLCPK1, Marshall et al., 1994): induced Cl transport"
"rhodamine green [IV, reference compound]",++++,530 nm,505 nm,30 M⁻¹,–
